# In paper PMC10439028, “SGLT5 is the renal transporter for 1,5-anhydroglucitol, a major player in two rare forms of neutropenia” (Cellular and Molecular Life Sciences: CMLS, 2023):
# pIC50: −log10 of the molar value. “Also recorded” adds a separate entry of the source. Like-named read-outs stand apart in the source and are kept apart here.
# What was measured:
# human SGLT4 = target: T1, human SGLT4 (Homo sapiens, UniProt Q2M3M2); test: Radioactive uptake assay (saturation kinetics) in HEK293T cells stably overexpressing human SGLT4; format: cell-based
# T1 construct: expressed in transfected cells
# T1 sequence (Q2M3M2 1-681): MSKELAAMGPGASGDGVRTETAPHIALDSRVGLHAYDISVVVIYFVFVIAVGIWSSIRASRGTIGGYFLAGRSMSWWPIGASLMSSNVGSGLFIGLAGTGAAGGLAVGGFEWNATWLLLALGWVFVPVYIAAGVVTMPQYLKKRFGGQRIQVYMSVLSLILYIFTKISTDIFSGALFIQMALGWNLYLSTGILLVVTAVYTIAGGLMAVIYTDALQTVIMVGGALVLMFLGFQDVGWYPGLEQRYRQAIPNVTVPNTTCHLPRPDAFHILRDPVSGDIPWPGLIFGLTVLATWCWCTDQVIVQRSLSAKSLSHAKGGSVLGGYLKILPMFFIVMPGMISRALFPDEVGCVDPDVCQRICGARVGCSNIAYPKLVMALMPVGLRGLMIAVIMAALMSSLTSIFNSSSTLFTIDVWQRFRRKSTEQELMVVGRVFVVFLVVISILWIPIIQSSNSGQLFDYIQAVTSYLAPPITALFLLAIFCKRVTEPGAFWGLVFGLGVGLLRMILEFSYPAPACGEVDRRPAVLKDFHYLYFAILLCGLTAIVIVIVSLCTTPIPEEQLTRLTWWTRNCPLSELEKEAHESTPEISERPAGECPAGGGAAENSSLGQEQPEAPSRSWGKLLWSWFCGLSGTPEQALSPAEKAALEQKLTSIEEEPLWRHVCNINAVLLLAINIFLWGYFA
# Text: This assay was used to study (1) the transport of 1,5-AG or mannose by the HEK293T model cell lines that stably overexpressed the various transporters or by the transiently transfected HEK293T cells using JetPEI® as a transfection agent prepared as described above and (2) the substrate specificity of each transporter.
# (§1) For a typical transporter experiment we proceeded as follows. […] To minimize cell loss during the various washing steps in the radioactive uptake experiments, the wells where the cells were seeded were previously coated with poly- D-lysine, which improved their adhesion to the plastic surface of the wells. For this, each well of the 24-well plates was treated with 200 µl of a 0.01% poly-L-lysine solution for 10 min, washed 3 times with 1 ml of sterilized water and left to dry for 2 h. Only then could the 24-well plates be seeded with the appropriate cell lines and cultured overnight at 37 °C in 5% CO2.
# On day two, the radioactive uptake assay could be performed. The cell culture media was removed by aspiration and cells were incubated for 20 min at 37 °C and 5% CO2 with a basal medium (10 mM HEPES, pH 7.4, 1 mM CaCl2, 1 mM MgCl2, 2 mM KCl) containing 140 mM choline chloride to deplete intracellular […] ions. This was subsequently replaced with the uptake medium (basal medium + 140 mM NaCl, 25 μM cytochalasin B, 1 mg/ml BSA) containing either radioactive U-[^14C]-mannose (15,000 cpm/well) or 2-[^3H]-1,5-AG (30,000 cpm/well) and respectively, non-radioactive mannose or 1,5-AG, at the required concentration in the experiment. […]
# (§2) Once the uptake medium was added to the cells, the plates were incubated at 37 °C in 5% CO2 during the required time. […] In each experiment, the transport activities were calculated after subtracting a “blank” value, corresponding to the radioactivity in the appropriate control cells (HEK293T cells that were stably or transiently transfected with one of the parent plasmids pEF6/MycHisA, pEF6HisB, pUB82 or pUB83 with no inserted cDNA) that were analyzed in parallel.
# human SGLT5 = target: T2, human SGLT5 (Homo sapiens, UniProt A0PJK1); test: Inhibition of 10 µM radiolabelled 1,5-AG transport in HEK293T cells overexpressing human SGLT5; format: cell-based
# T2 construct: expressed in transfected cells
# T2 sequence (A0PJK1 1-596): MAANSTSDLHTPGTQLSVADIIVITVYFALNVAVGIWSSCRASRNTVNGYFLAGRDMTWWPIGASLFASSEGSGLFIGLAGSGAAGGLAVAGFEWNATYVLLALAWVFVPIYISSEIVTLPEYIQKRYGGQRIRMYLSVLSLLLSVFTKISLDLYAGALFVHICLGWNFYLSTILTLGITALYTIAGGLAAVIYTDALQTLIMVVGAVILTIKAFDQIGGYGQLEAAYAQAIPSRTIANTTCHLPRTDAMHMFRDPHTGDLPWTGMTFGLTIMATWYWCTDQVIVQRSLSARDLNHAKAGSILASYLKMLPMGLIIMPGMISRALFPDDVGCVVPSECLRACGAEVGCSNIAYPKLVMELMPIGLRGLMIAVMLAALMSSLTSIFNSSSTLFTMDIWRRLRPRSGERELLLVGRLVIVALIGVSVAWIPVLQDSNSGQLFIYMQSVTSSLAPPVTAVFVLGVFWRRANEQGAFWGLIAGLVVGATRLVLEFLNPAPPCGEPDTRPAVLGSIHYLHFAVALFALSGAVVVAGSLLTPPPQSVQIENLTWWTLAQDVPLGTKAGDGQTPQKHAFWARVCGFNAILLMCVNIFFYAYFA
# Method: as §1
# On day two, the radioactive uptake assay could be performed. The cell culture media was removed by aspiration and cells were incubated for 20 min at 37 °C and 5% CO2 with a basal medium (10 mM HEPES, pH 7.4, 1 mM CaCl2, 1 mM MgCl2, 2 mM KCl) containing 140 mM choline chloride to deplete intracellular […] ions. This was subsequently replaced with the uptake medium (basal medium + 140 mM NaCl, 25 μM cytochalasin B, 1 mg/ml BSA) containing either radioactive U-[^14C]-mannose (15,000 cpm/well) or 2-[^3H]-1,5-AG (30,000 cpm/well) and respectively, non-radioactive mannose or 1,5-AG, at the required concentration in the experiment. Importantly, when measuring the transport of mannose, the uptake media also contained 0.5 mM glucose. This resulted from the need to reduce the background transport of mannose in control HEK293T cells in order to optimize the transport assay for this sugar in our model cell lines. Consequently, after testing various inhibitors (Supplementary Fig. 1), 0.5 mM glucose + 25 µM cytochalasin B appeared as the best combination to decrease efficiently the endogenous transport of mannose in control cells without affecting the transport of mannose in model cell lines overexpressing SGLT4 and SGLT5. Therefore in the radioactive uptake assays for mannose, the uptake medium was: basal uptake medium + 140 mM NaCl, 25 μM cytochalasin B, 0.5 mM glucose and 1 mg/ml BSA to which we added U-[^12C + ^14C]-mannose as described above.
# as §2
# The transport experiments to study the specificity of SGLT4 or SGLT5, were performed in the presence of 10 µM U-[^14C + ^12C]-mannose (for SGLT4) or 2-[^3H + ^1H]-1,5-AG (for SGLT5) and increasing concentrations of various sugars tested. The transport experiments to study the inhibition of empagliflozin, dapagliflozin or remogliflozin, on the transport of 1,5-AG by SGLT5 or its variants were performed in the presence of 10 µM 2-[^3H + ^1H]-1,5-AG and increasing concentrations of the various gliflozins tested.
# [1] = substrate 10 μM 1,5-AG, unlabelled sugars, Fig. 3C, read-out: hSGLT5 IC50
"pIC50 (human SGLT5; 10 µM 2-[1H+3H]-1,5-AG, Fig. 5C, read-out: IC50 for SGLT5-mediated 1,5-AG transport (gliflozins))",SMILES,SGLT4 better than SGLT5 to transport mannose (human SGLT4; assuming similar expression of the transporters in the cell lines),"hSGLT4 Vmax (human SGLT4; transport of the labelled substrate, Fig. 2B) [pmol/min/10^5 cells]",pIC50 (human SGLT5; [1]),"transport of 1,5-AG by human SGLT4 (human SGLT4; concentrations in the physiological range)","pIC50 (human SGLT5; 10 µM 2-[1H+3H]-1,5-AG, Supplementary Fig. 7, read-out: IC50 for 1,5-AG, SGLT5-WT)","preference of 1,5-AG over glucose, difference in Ki (human SGLT5; SGLT5) [fold]"
,"OC[C@H]1OC(O)[C@@H](O)[C@@H](O)[C@@H]1O (some centres unmarked) [Mannose, mannose]",approximately tenfold better,16.6 ± 0.5,3.42,,,
6.15,OC[C@H]1O[C@@H](c2ccc(Cl)c(Cc3ccc(O[C@H]4CCOC4)cc3)c2)[C@H](O)[C@@H](O)[C@@H]1O [empagliflozin],,,,,,
,"OC[C@H]1OC[C@H](O)[C@@H](O)[C@@H]1O [1,5-AG, 1,5-anhydroglucitol]",,,3.78,does not transport; also recorded: undetectable,3.79,20
